In patent publication US8889677B2, “Substituted triazoles useful as mGlu5 receptor modulators” (Boehringer Ingellheim International GmbH, priority 2012, dated 2014):

biological target: T1, human recombinant mGluR5 (Homo sapiens, UniProt P41594); assay: positive modulation of mGluR5, calcium based FLIPR assay in HEK 293 cells; conditions: HEK 293 cell line expressing human recombinant mGluR5; EC50 of the modulation of the glutamate response (glutamate approx. 5% basal stimulation); peak height of Ca release fluorescence signal
T1 construct: expressed in transfected cells; host or cells: HEK 293 cell line cultured with tetracycline, hygromycin and geneticin; tetracycline removed 3-7 days before the assay
T1 sequence (P41594 21-1212): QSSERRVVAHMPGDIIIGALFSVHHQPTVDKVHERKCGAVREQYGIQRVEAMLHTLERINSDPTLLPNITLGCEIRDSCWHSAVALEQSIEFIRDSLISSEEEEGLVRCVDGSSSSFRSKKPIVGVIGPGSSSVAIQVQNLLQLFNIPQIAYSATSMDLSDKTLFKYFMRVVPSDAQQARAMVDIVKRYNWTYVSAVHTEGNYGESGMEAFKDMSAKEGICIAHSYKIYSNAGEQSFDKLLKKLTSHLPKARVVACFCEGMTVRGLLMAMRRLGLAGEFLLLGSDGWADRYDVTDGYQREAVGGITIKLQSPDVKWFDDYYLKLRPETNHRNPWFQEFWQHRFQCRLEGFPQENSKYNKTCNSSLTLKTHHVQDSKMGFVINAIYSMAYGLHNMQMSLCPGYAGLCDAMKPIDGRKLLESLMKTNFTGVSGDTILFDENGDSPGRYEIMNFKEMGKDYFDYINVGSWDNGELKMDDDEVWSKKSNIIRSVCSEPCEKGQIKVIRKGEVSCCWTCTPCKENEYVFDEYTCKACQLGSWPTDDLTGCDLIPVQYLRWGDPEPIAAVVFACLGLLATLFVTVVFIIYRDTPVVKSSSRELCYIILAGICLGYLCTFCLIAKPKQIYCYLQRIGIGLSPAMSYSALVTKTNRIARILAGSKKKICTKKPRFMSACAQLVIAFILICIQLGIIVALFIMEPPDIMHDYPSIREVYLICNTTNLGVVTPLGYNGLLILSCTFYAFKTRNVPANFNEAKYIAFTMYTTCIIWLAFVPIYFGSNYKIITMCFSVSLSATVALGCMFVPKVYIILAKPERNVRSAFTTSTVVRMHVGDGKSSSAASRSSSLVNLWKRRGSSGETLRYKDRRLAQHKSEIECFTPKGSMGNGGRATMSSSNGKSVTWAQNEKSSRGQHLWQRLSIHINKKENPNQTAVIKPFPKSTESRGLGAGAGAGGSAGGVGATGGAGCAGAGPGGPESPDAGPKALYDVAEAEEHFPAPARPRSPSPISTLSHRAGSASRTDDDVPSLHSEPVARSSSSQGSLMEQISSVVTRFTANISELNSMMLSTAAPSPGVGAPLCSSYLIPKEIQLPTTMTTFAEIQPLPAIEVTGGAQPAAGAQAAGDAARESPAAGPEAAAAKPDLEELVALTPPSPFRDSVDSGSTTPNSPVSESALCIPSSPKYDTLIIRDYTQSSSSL
Description: The positive modulation of mGluR5 is measured in a HEK 293 cell line expressing human recombinant mGluR5 and is detected with calcium based FLIPR assay. The cells are cultured with DMEM supplemented with 10% FCS, 2 μg/mL tetracycline, 100 μg/mL hygromycin and 500 μg/mL gneticin. The cell culture media is exchanged for tetracycline-free cell culture media 3-7 days before the assay. One day before the assay the cell culture medium is exchanged to DMEM without glutamine and phenol red and supplemented with 10% FCS, 100 μg/mL hygromycin and 500 μg/mL geneticin. On the assay day, the medium of the subconfluent cultures is removed and the cells are detached by addition of 2.5 ml EDTA (0.02%) per 175 cm2 culture flask for 1 minute. The cells are resuspend in Ringer solution (140 mM NaCl, 5 mM KCl, 2.5 mM CaCl2, 1.5 mM MgCl2, 5 mM Glucose, 10 mM Hepes; adjusted to pH 7.4 with NaOH), pooled and Ringer solution added to adjust the volume to 50 mL. The cell suspension is centrifuged for […] at 1500 U/min (425 g). The supernatant is removed and the cells washed a second time with 50 ml fresh Ringer solution and centrifuged again as before. The supernatant is again removed and the pellet resuspended in Ringer solution to 1,000,000 cells/ml (1×10^6 cells/mL). The cells are plated onto BD BioCoat Poly-D-Lysine 384 well plates (20.000 cells/well; 20 μl/well). The lid covered plates are then incubated until use at 37° C./10% CO2. For dye loading, 20 μl of Calcium-4 assay kit solution (prepared according to the manufacturer's description in Ringer solution) are added to the cells and the plates are incubated for 80 min 37° C. and then 10 min at room temperature.
Controls, Compound Dilution and Assay Execution:
Each assay plate contained wells with “high” and “low” controls:
Low controls 1% DMSO/ringer solution+basal glutamate activation (defined as 100% CTL).
High controls 10 μM CDPPB+basal glutamate activation (defined as 200% CTL).
Test compounds are dissolved and diluted in DMSO to 100-fold the desired concentrations. In a second step, the compounds are diluted in Ringer solution such that the compounds are 4-fold more concentrated than the desired final assay concentration. The final DMSO concentration was 1%.
20 μl of each compound solution are then transferred to the assay plate and the Ca2+ kinetic is measured to determine any intrinsic compound activity. After 5 min incubation in the FLIPR device, the second stimulation with 20 μl of glutamate in Ringer solution (glutamate concentration adjusted to approximately 5% basal stimulation of the maximal possible glutamate effect) is added and the kinetic Ca2+ response of the wells was measured for the modulation effect.
The peak height of the Ca release related fluorescence signal (9-66) is used for the EC50. The EC50 of the modulation is calculated over a nonlinear regression with GraphPad Prism (Table 1).

SMILES	EC50 [nM]
O=C(Cn1nc(-c2ccc(F)cc2)nc1-c1ccc(F)cc1)N1CCN(c2ncccn2)CC1 [Example 07.01.01., 2-(3,5-Bis-(4-fluoro-phenyl)-(1,2,4)triazol-1-yl)-1-(4-pyrimidin-2-yl-piperazin-1-yl)-ethanone]	24
O=C(Cn1nc(-c2ccc(F)cc2)nc1-c1ccc(F)cc1)N1CCN(c2ccccn2)CC1 [Example 07.01.02.]	56
O=C(Cn1nc(-c2ccc(F)cc2)nc1-c1ccc(F)cc1)N1CCN(c2cc(Br)ccn2)CC1 [Example 07.01.03.]	80
O=C(Cn1nc(-c2ccc(F)cc2)nc1-c1ccc(F)cc1)N1CCN(c2cc(F)ccn2)CC1 [Example 07.01.04.]	82
O=C(Cn1nc(-c2ccc(F)cc2)nc1-c1ccc(F)cc1)N1CCN(c2ccnc(F)c2)CC1 [Example 07.01.05.]	399
Cc1cc(-c2nc(-c3ccccc3)n(CC(=O)N3CCN(c4ncccn4)CC3)n2)ccc1Br [Example 07.01.06.]	13
Cc1cc(-c2nc(-c3ccccc3)nn2CC(=O)N2CCN(c3ncccn3)CC2)ccc1Br [Example 07.01.07.]	66
N#Cc1cccnc1N1CCN(C(=O)Cn2nc(-c3ccc(F)cc3)nc2-c2ccc(F)cc2)CC1 [Example 07.02.01., 2-(4-(2-(3,5-Bis-(4-fluoro-phenyl)-(1,2,4)triazol-1-yl)-acetyl)-piperazin-1-yl)-nicotinonitrile]	190
O=C(Cn1nc(-c2ccc(F)cc2)nc1-c1ccc(F)cc1)N1CCN(c2ncccc2C(F)(F)F)CC1 [Example 07.02.02.]	474
COc1cccc(N2CCN(C(=O)Cn3nc(-c4ccc(F)cc4)nc3-c3ccc(F)cc3)CC2)n1 [Example 07.02.03.]	220
Cc1cccnc1N1CCN(C(=O)Cn2nc(-c3ccc(F)cc3)nc2-c2ccc(F)cc2)CC1 [Example 07.02.04.]	1060
Cc1ccnc(N2CCN(C(=O)Cn3nc(-c4ccc(F)cc4)nc3-c3ccc(F)cc3)CC2)c1 [Example 07.02.05.]	44
Cc1ccc(N2CCN(C(=O)Cn3nc(-c4ccc(F)cc4)nc3-c3ccc(F)cc3)CC2)nc1 [Example 07.02.06.]	155
O=C(Cn1nc(-c2ccc(F)cc2)nc1-c1ccc(F)cc1)N1CCN(c2cc(C(F)(F)F)ccn2)CC1 [Example 07.02.07.]	217
N#Cc1ccnc(N2CCN(C(=O)Cn3nc(-c4ccc(F)cc4)nc3-c3ccc(F)cc3)CC2)c1 [Example 07.02.08.]	36
COc1ccc(-c2nc(-c3ccc(OC)cc3)n(CC(=O)N3CCN(c4ncccn4)CC3)n2)cc1 [Example 07.02.09.]	61
COc1ccc(-c2nc(-c3ccc(OC)cc3)n(CC(=O)N3CCN(c4ccccn4)CC3)n2)cc1 [Example 07.02.10.]	83
COc1ccc(-c2nc(-c3ccc(OC)cc3)n(CC(=O)N3CCN(c4ccc(C)cn4)CC3)n2)cc1 [Example 07.02.11.]	375
COc1ccc(-c2nc(-c3ccc(OC)cc3)n(CC(=O)N3CCN(c4ccc(Cl)cn4)CC3)n2)cc1 [Example 07.02.12.]	328
COc1ccc(-c2nc(-c3ccc(OC)cc3)n(CC(=O)N3CCN(c4ccc(C#N)cn4)CC3)n2)cc1 [Example 07.02.13.]	1290
COc1ccc(-c2nc(-c3ccc(OC)cc3)n(CC(=O)N3CCN(c4ccc(C(F)(F)F)cn4)CC3)n2)cc1 [Example 07.02.14.]	1050
COc1ccc(-c2nc(-c3ccc(OC)cc3)n(CC(=O)N3CCN(c4cccc(OC)n4)CC3)n2)cc1 [Example 07.02.15.]	675
COc1ccc(-c2nc(-c3ccc(OC)cc3)n(CC(=O)N3CCN(c4ncccc4C#N)CC3)n2)cc1 [Example 07.02.16.]	266
COc1ccc(-c2nc(-c3ccc(OC)cc3)n(CC(=O)N3CCN(c4ccc(C(N)=O)cn4)CC3)n2)cc1 [Example 07.02.17.]	644

Results, then the compound that gave them:

EC50 [nM]	SMILES
227	COc1ccc(-c2nc(-c3ccccc3)n(CC(=O)N3CCN(c4ccccn4)CC3)n2)cc1OC [Example 07.02.18.]
494	COc1ccc(-c2nc(-c3ccccc3)n(CC(=O)N3CCN(c4ncccc4C#N)CC3)n2)cc1OC [Example 07.02.19.]
162	COc1ccc(-c2nc(-c3ccccc3)n(CC(=O)N3CCN(c4cc(C)ccn4)CC3)n2)cc1OC [Example 07.02.20.]
451	COc1ccc(-c2nc(-c3ccccc3)n(CC(=O)N3CCN(c4ccc(C)cn4)CC3)n2)cc1OC [Example 07.02.21.]
1910	COc1ccc(-c2nc(-c3ccccc3)n(CC(=O)N3CCN(c4ncccc4C(F)(F)F)CC3)n2)cc1OC [Example 07.02.23.]
229	COc1ccc(-c2nc(C3CCCCC3)n(CC(=O)N3CCN(c4ncccn4)CC3)n2)cc1 [Example 07.02.24.]
424	COc1ccc(-c2nc(C3CCCCC3)n(CC(=O)N3CCN(c4ccccn4)CC3)n2)cc1 [Example 07.02.25.]
252	COc1ccc(-c2nc(C3CCCCC3)n(CC(=O)N3CCN(c4cc(C)ccn4)CC3)n2)cc1 [Example 07.02.26.]
353	O=C(Cn1nc(-c2ccccc2)nc1-c1ccccc1)N1CCN(c2ccccn2)CC1 [Example 07.02.27.]
243	Cc1ccnc(N2CCN(C(=O)Cn3nc(-c4ccccc4)nc3-c3ccccc3)CC2)c1 [Example 07.02.28.]
88	COc1ccnc(N2CCN(C(=O)Cn3nc(-c4ccc(F)cc4)nc3-c3ccc(F)cc3)CC2)c1 [Example 07.03.01., 2-(3,5-Bis-(4-fluoro-phenyl)-(1,2,4)triazol-1-yl)-1-(4-(4-methoxy-pyridin-2-yl)-piperazin-1-yl)-ethanone]
1280	CCOC(=O)c1cccc(N2CCN(C(=O)Cn3nc(-c4ccc(F)cc4)nc3-c3ccc(F)cc3)CC2)c1 [Example 07.03.02.]
595	O=C(Cn1nc(-c2ccc(F)cc2)nc1-c1ccc(F)cc1)N1CCN(c2nccc(C(F)(F)F)n2)CC1 [Example 07.03.03.]
50	O=C(Cn1nc(-c2ccc(F)cc2)nc1-c1ccc(F)cc1)N1CCN(c2ncc(Br)cn2)CC1 [Example 07.03.04.]
469	O=C(Cn1nc(-c2ccc(F)cc2)nc1-c1ccc(F)cc1)N1CCN(c2cccc(F)c2)CC1 [Example 07.03.05.]
350	N#Cc1cccc(N2CCN(C(=O)Cn3nc(-c4ccc(F)cc4)nc3-c3ccc(F)cc3)CC2)c1 [Example 07.03.06.]
610	Cc1cc(C)nc(N2CCN(C(=O)Cn3nc(-c4ccc(F)cc4)nc3-c3ccc(F)cc3)CC2)n1 [Example 07.03.07.]
124	N#Cc1ccnc(N2CCN(C(=O)Cn3nc(-c4ccc(F)cc4)nc3-c3ccc(F)cc3)CC2)n1 [Example 07.03.08.]
121	O=C(Cn1nc(-c2ccc(F)cc2)nc1-c1ccc(F)cc1)N1CCN(c2cc(Cl)ncn2)CC1 [Example 07.03.09.]
67	COc1ccnc(N2CCN(C(=O)Cn3nc(-c4ccc(F)cc4)nc3-c3ccc(F)cc3)CC2)n1 [Example 07.03.10.]
283	CN(C)c1cncc(N2CCN(C(=O)Cn3nc(-c4ccc(F)cc4)nc3-c3ccc(F)cc3)CC2)n1 [Example 07.03.11.]
134	O=C(Cn1nc(-c2ccc(F)cc2)nc1-c1ccc(F)cc1)N1CCN(c2cccnn2)CC1 [Example 07.03.12.]
224	COc1cc(OC)nc(N2CCN(C(=O)Cn3nc(-c4ccc(F)cc4)nc3-c3ccc(F)cc3)CC2)n1 [Example 07.03.13.]
85	O=C(Cn1nc(-c2ccc(F)cc2)nc1-c1ccc(F)cc1)N1CCN(c2ncncn2)CC1 [Example 07.03.14.]
574	Cc1cc(C#N)nc(N2CCN(C(=O)Cn3nc(-c4ccc(F)cc4)nc3-c3ccc(F)cc3)CC2)n1 [Example 07.03.15.]
66	CN(C)c1ccnc(N2CCN(C(=O)Cn3nc(-c4ccc(F)cc4)nc3-c3ccc(F)cc3)CC2)n1 [Example 07.03.16.]
601	CN(C)c1ccnc(N2CCN(C(=O)Cn3nc(-c4ccc(F)cc4)nc3-c3ccc(F)cc3)CC2)c1 [Example 07.03.17.]
179	COc1cncc(N2CCN(C(=O)Cn3nc(-c4ccc(F)cc4)nc3-c3ccc(F)cc3)CC2)n1 [Example 07.03.18.]
